# Key:
# ischemic hindlimbs [1] = experiment: Live microscopy / quantitative confocal analysis of arteriolar growth in ischemic hindlimbs; assay type: in vivo, mice; details: ischemic legs
# Source text: The outcomes of local delivery of CPGI2, a prostacyclin analogue, to ischemic hindlimbs were investigated. More specifically, arteriolar growth in ischemic hindlimbs was monitored in conjunction with CPGI2 treatment. Dynamic changes in the microvascular morphology of the limb region distal to the ligation where CPGI2 was applied were microscopically examined in live mice. At 7 days after treatment, structural remodeling at the arteriolar level in the CPGI2 group was more distinct than in the saline group, as shown in FIG. 3. […] More intra-arteriolar connections (solid line arrows, as shown in FIG. 3) and corkscrew extensions of arterioles (dashed line arrows, as shown in FIG. 3) developed in CPGI2-treated versus saline-treated groups. Arteriolar networks were identified by their branching out from a large feeder femoral artery or from a saphenous branch of descending genicular artery.
# ischemic hindlimbs [2] = experiment: Laser Doppler perfusion of ischemic hindlimbs with local CPGI2 delivery by osmotic pump; assay type: in vivo, mice; details: local delivery to ischemic thigh muscle, n=5/group
# Method: Serial measurements of perfusion were performed with the use of a laser Doppler image device (Perimed AB, […]) at 24 hours and 3, 5, 7, and 14 days after cell injections in the cell-treated groups and at the same time points in iloprost-treated mice. Perfusion was expressed as the perfusion ratio in the ischemic compared to the contralateral, non-manipulated leg. The outcomes of local delivery of CPGI2, a prostacyclin analogue, to ischemic hindlimbs were investigated. More specifically, blood perfusion in ischemic hindlimbs was monitored in conjunction with CPGI2 treatment. An osmotic pump was implanted and a catheter was used to deliver the prostacyclin analogue CPGI2 or saline (vehicle) to the surface of the ischemic anterior thigh muscle for up to 14 days.
# ischemic hindlimbs [3] = experiment: Quantitative micro-CT of microvascular network in ischemic hindlimbs; assay type: in vivo, mice
# Source text: The outcomes of local delivery of CPGI2, a prostacyclin analogue, to ischemic hindlimbs were investigated. More specifically, remodeling of microvascular network in ischemic hindlimbs was monitored in conjunction with CPGI2 treatment. High-definition, volumetric, quantitative micro-CT was used to assess the overall microvascular geometry of ischemic and contralateral non-ischemic legs 14 days after femoral occlusion and constant local administration of CPGI2 or saline. […] Similar global morphometric analyses were used to evaluate contralateral non-ischemic legs. […] To further verify the pro-arteriogenic effect of CPGI2, a quantitative histogram was generated by using micro-CT to illustrate frequency and distribution of blood vessel size in CPGI2-treated legs in comparison to saline-treated or contralateral non-ischemic legs. […] Referring to FIG. 4B, the red dashed circles show more vasculature in the thigh muscle where CPGI2 was administered as compared to the similar area where saline was administered. […] CPGI2 treatment positively affects remodeling of the microvascular network in ischemic hindlimbs. Quantitative micro-CT analyses indicate CPGI2 augments vascular growth.
# [4] = system: hMSCs in ischemic hindlimbs of NOD/SCID mice; experiment: In vivo bioluminescence imaging of hMSC retention with daily SEE drug treatment; details: 3 days, hMSCs preconditioned 100 nM 4 days
# Method: The ability of stem cells to engraft in ischemic tissues in the presence of SEE was investigated. More specifically, the ability of hMSCs to engraft in ischemic hindlimbs in the presence of different SEEs was investigated. The studies were conducted in as described in Example 5, unless otherwise specified. To investigate the signaling pathways involved in prostacyclin-induced cell retention after hindlimb ischemia, hMSCs were preconditioned with either prostacyclin receptor agonist Cicaprost (100 nM) or PPARβ/δ agonist GW501516 (100 nM) for 4 days in vitro. Cells were then injected into the gastrocnemius of ischemic hindlimbs of NOD/SCID mice. After cell injection, mice were either treated daily with Cicaprost (oral gavage, LD=0.3 mg/kg/day; HD=1 mg/kg/day) or GW501516 (intra peritoneal (IP), 5 mg/kg/day). LD=low dose and HD=high dose. In vivo BLI was performed on cell-drug treated mice.
# [5] = in vivo; cited from earlier work
structure (smiles),measurement,setting,value
"CCCCC[C@H](O)/C=C/[C@@H]1[C@H]2C/C(=C/CCCC(=O)O)C[C@H]2C[C@H]1O [CPGI2, Carbaprostacyclin]",structural remodeling at the arteriolar level versus saline group,ischemic hindlimbs [1]; 7 days after treatment,more distinct
same,number of microvessels ranging in size from 15-50 m in diameter,ischemic hindlimbs [1]; quantitative confocal analysis,38.00±2.41 /high-power field [HPF]
same,blood flow recovery,"ischemic hindlimbs [2]; 7 days, perfusion ischemic vs contralateral leg",58.80±5.74%
same,blood flow recovery,ischemic hindlimbs [2]; 14 days,88.40±8.71%
same,distance between vessels,"ischemic hindlimbs [3]; ischemic legs, 14 days",6.60±0.52 mm
same,vascular volume,"ischemic hindlimbs [3]; ischemic legs, 14 days after femoral occlusion, constant local administration",41.28±2.22 mm^3
same,"small vessels, vessel diameter bins 40-60 μm, relative to saline-treated ischemic legs","ischemic hindlimbs [3]; micro-CT histogram, ischemic legs",significant increase
same,morphologic variables of contralateral non-ischemic legs versus saline-treated,"ischemic hindlimbs [3]; non-ischemic legs, 14 days",No significant differences
Cc1cc(SCc2sc(-c3ccc(C(F)(F)F)cc3)nc2C)ccc1OCC(=O)O [GW501516],bioluminescent intensity (hMSC retention) versus no drug treatment,[4]; intra peritoneal 5 mg/kg/day,markedly higher
CCC#CC[C@H](C)[C@H](O)C#C[C@@H]1[C@H]2C/C(=C/COCC(=O)O)C[C@H]2C[C@H]1O [Cicaprost],bioluminescent intensity (hMSC retention) versus no drug treatment,[4]; oral gavage daily 0.3 or 1 mg/kg/day,markedly higher
"CCCCC[C@H](O)/C=C/[C@@H]1[C@H]2C/C(=C/CCCC(=O)O)O[C@H]2C[C@H]1O [PGI2, prostacyclin]",circulating half-life,[5],1 to 2 min

# — patent US20170049822A1, “METHODS OF ENHANCING STEM CELL ENGRAFTMENT” (TEXAS HEART INSTITUTE, priority 2014, published 2017)
